The values that follow are results of earlier work, collected in patent publication US20110171717A1, “METHOD FOR ENHANCING […]” (priority 2006, published 2011).

In the data set the test system is polymerase. The following applies: cited from earlier work; for effect on polymerase activity: known from Weyant et al., BioTechniques 1990.

On to `CCCCCCCCCCCCOS(=O)(=O)[O-].[Na+]` [SDS, Sodium dodecyl sulfate], for which the “effect on polymerase activity” value is on record as “inhibit a polymerase activity”. Further, the “effect on polymerase activity at low concentration” value (e.g., 0.01% of SDS) is “inhibit a polymerase activity even at low concentrations”.
Turning to Sodium deoxycholate, the “effect on polymerase activity” value is reported as “inhibit a polymerase activity”.
With `CCCCCCCCCCCC(=O)N(C)CC(=O)[O-].[Na+]` [sodium N-lauroyl sarcosinate, N-Lauroylsarcosine-sodium salt], the “effect on polymerase activity” value is listed as “inhibit a polymerase activity”.
